Measurements published in patent US10927136B2, “Phosphorus prodrugs of pyrazolo-substituted pyrimidine sGC stimulators” (Cyclerion Therapeutics, Inc., priority 2016, dated 2021).

Target: T1, HEK (Homo sapiens, UniProt Q02108+Q02153)
T1 construct: sGC enzyme activity values in HEK cells; endogenous in cells; host or cells: HEK cells
T1 sequence (Q02153 1-619): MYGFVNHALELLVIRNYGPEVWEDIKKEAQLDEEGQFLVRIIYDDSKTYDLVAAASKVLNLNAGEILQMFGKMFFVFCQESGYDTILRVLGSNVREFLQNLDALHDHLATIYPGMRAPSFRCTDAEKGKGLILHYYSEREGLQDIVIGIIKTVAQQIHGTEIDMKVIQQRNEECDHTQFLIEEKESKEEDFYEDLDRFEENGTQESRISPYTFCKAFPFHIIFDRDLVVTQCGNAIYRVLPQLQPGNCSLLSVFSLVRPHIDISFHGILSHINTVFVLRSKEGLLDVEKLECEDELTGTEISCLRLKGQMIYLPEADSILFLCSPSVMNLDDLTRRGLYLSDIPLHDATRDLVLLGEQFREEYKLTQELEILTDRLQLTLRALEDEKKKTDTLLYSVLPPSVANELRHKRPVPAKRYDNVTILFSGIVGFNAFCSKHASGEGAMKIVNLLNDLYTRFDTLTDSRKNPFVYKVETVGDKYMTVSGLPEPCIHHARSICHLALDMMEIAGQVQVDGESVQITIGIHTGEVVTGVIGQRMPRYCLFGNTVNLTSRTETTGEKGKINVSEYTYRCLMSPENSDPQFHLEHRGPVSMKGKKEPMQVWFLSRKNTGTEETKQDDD
T1 sequence (Q02108 1-690): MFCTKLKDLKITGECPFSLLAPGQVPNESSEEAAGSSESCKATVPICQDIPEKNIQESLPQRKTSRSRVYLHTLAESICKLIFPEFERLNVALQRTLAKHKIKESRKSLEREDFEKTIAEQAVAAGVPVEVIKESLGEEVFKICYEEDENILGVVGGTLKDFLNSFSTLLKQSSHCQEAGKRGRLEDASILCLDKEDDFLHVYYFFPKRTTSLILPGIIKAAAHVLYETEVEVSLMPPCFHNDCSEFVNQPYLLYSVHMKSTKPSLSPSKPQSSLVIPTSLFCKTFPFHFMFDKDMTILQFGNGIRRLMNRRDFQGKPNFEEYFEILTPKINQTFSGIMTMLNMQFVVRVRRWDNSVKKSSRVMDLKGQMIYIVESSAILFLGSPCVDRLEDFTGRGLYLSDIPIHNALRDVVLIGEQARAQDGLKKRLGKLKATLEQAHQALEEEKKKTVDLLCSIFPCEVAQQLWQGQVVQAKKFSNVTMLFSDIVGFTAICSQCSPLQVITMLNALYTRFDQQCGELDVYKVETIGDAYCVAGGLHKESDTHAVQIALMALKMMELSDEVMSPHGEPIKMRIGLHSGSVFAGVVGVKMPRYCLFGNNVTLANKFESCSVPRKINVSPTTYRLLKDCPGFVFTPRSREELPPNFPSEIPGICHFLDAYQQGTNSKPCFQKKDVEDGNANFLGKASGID
Experiment: HEK EC50 quoted in rat PO PK table (assay version not stated)
Format: cell-based
Settings: listed in rat PO PK table for Intermediate 3

EC50: 100 nM
SMILES: OC(CNc1nc(-c2cc(-c3ccon3)n(Cc3ccccc3F)n2)ncc1F)(C(F)(F)F)C(F)(F)F [Intermediate 3]
